According to US12180185B2, “Compound as protein kinase inhibitor, and pharmaceutical composition comprising thereof” (HK INNO.N Corporation, priority 2018, dated 2024):
pIC50: −log10 of the molar value.

Biological target: JAK1 (Homo sapiens (Human), UniProt P23458)
Assay: Analysis of JAK1 activity inhibitory capacity (ADP-Glo Kinase assay)
Type: biochemical
Conditions: JAK1 enzyme, ATP 250 uM, IRS-1tide substrate, 30° C. 40 minutes, luminescence
Description: Experimental Example 1: Analysis of JAK1 activity inhibitory capacity (ADP-Glo™ Kinase assay)
An inhibitory effect of the inventive compound on JAK was identified as follows.
A control material and a test material were prepared through dilution at each concentration by using DMSO. At the same time, ATP (250 uM) and JAK's substrate (JAK1, IRS-1tide 40 ng/mL) were prepared through dilution in kinase buffer (40 mM Tris-HCl pH 7.5, 20 mM MgCl2, 0.5 mg/mL BSA, 50 uM DTT).
A test drug for each concentration, the substrate, the ATP and JAK enzymes were mixed in an eppendorf tube, and then subjected to reaction in an incubator at 30° C. for 40 minutes.
ADP-Glo ? reagent included in ADP-Glo™ Kinase Enzyme System (Promega, USA, V9571) was added to each eppendorf tube, and then subjected to reaction in the incubator at 30° C. for 40 minutes.
A kinase detection reagent included in the ADP-Glo™ Kinase Enzyme System was inserted into the eppendorf tube, after which luminescence was measured by using Wallac Victor 2TM with an integration time set to 1 second, such that an inhibitory capacity of the test material on JAKs phosphorylation was analyzed. A concentration of the compound, at which JAK enzyme activity inhibition occurs 50% compared to the control group, was determined as IC50 (nM) of an inhibitor.

Sequence of JAK1 (P23458 whole entry): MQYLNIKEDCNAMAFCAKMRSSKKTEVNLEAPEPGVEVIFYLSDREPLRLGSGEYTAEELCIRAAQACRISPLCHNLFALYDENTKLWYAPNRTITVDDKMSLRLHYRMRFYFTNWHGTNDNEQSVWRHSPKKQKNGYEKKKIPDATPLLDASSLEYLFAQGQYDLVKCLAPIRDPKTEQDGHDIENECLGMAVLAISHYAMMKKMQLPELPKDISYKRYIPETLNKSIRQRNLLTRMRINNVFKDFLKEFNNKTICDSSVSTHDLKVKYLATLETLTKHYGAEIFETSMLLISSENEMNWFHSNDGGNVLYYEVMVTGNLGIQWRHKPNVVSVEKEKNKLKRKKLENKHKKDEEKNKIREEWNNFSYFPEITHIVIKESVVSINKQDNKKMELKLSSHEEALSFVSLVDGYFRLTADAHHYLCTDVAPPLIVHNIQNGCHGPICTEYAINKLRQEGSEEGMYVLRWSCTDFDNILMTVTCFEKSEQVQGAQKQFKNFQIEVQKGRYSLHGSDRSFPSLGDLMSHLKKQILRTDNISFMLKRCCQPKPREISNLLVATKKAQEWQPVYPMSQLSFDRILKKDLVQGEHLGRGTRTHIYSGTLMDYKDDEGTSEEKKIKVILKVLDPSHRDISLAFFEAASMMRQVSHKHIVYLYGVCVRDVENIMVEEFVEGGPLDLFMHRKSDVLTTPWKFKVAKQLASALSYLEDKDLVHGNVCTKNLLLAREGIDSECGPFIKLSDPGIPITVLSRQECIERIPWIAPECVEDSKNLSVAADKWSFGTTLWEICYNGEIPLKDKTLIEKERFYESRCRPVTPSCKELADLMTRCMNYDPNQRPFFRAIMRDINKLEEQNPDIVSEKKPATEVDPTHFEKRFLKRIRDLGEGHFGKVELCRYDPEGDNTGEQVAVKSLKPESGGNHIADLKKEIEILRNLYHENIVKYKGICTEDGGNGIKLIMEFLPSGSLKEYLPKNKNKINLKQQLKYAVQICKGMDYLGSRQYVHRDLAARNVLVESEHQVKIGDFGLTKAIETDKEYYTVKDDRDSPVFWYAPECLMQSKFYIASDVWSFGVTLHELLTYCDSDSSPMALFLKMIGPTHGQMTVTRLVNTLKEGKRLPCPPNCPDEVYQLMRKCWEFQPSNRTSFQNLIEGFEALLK

pIC50	Structure (SMILES)
6.00 to 7.00	O=C(Nc1cccc2c(-c3ccnc(NC(=O)C4CC4)c3)c[nH]c12)c1cccc(F)c1 [Example 38, N-(3-(2-(cyclopropanecarboxamido)pyridin-4-yl)-1H-indol-7-yl)-3-fluorobenzamide]
6.00 to 7.00	Cn1cccc(C(=O)Nc2cccc3c(-c4ccnc(NC(=O)C5CC5)c4)c[nH]c23)c1=O [Example 34, N-(3-(2-(cyclopropanecarboxamido)pyridin-4-yl)-1H-indol-7-yl)-1-methyl-2-oxo-1,2-dihydropyridine-3-carboxamide]
> 7.00	N#CCC(=O)Nc1cccc2c(-c3ccnc(NC(=O)C4CC4)c3)c[nH]c12 [Example 10, N-(4-(7-(2-cyanoacetamido)-1H-indol-3-yl)pyridin-2-yl)cyclopropanecarboxamide]
< 6.00	COc1cc(-c2c[nH]c3c(NC(=O)CC#N)cccc23)cc(NC(=O)C2CC2)n1 [Example 20, N-(4-(7-(2-cyanoacetamido)-1H-indol-3-yl)-6-methoxypyridin-2-yl)cyclopropanecarboxamide]
> 7.00	Cc1cc(C)cc(C(=O)Nc2cccc3c(-c4ccnc(NC(=O)C5CC5)c4)c[nH]c23)c1 [Example 5, N-(3-(2-(cyclopropanecarboxamido)pyridin-4-yl)-1H-indol-7-yl)-3,5-dimethylbenzamid]
< 6.00	O=C(Nc1cccc2c1ccn2-c1ccnc(NC(=O)C2CC2)c1)c1ccnc(F)c1 [Example 52, N-(1-(2-(cyclopropanecarboxamido)pyridin-4-yl)-1H-indol-4-yl)-2-fluoroisonicotinamide]
6.00 to 7.00	O=C(Nc1cccc2c(-c3ccnc(NC(=O)C4CC4)c3)c[nH]c12)c1ccc[nH]1 [Example 23, N-(3-(2-(cyclopropanecarboxamido)pyridin-4-yl)-1H-indol-7-yl)-1H-pyrrole-2-carboxamide]
6.00 to 7.00	CCc1c[nH]c(C(=O)Nc2cccc3c(-c4ccnc(NC(=O)C5CC5)c4)c[nH]c23)c1 [Example 36, N-(3-(2-(cyclopropanecarboxamido)pyridin-4-yl)-1H-indol-7-yl)-4-ethyl-1H-pyrrole-2-carboxamide]
> 7.00	CC(C#N)C(=O)Nc1cccc2c(-c3ccnc(NC(=O)C4CC4)c3)c[nH]c12 (stereo not drawn) [Example 14, N-(4-(7-(2-cyanopropanamido)-1H-indol-3-yl)pyridin-2-yl)cyclopropanecarboxamide]
> 7.00	O=C(Nc1cccc2c(-c3ccnc(NC(=O)C4CC4)c3)c[nH]c12)c1ccnc(F)c1 [Example 4, N-(3-(2-(cyclopropanecarboxamido)pyridin-4-yl)-1H-indol-7-yl)-2-fluoroisonicotinamide]
> 7.00	O=C(Nc1cccc2c(-c3ccnc(NC(=O)C4CC4)c3)c[nH]c12)c1cnc(F)c(F)c1 [Example 30, N-(3-(2-(cyclopropanecarboxamido)pyridin-4-yl)-1H-indol-7-yl)-5,6-difluoronicotinamide]
6.00 to 7.00	N#C/C(=C\c1cccs1)C(=O)Nc1cccc2c(-c3ccnc(NC(=O)C4CC4)c3)c[nH]c12 [Example 25, (E)-N-(4-(7-(2-cyano-3-(thiophen-2-yl)acrylamido)-1H-indol-3-yl)pyridin-2-yl)cyclopropanecarboxamide]
6.00 to 7.00	COc1ccc(C(=O)Nc2cccc3c2ccn3-c2ccnc(NC(=O)C3CC3)c2)cc1F [Example 56, N-(1-(2-(cyclopropanecarboxamido)pyridin-4-yl)-1H-indol-4-yl)-3-fluoro-4-methoxybenzamide]
6.00 to 7.00	Cc1cc(NC(=O)c2cnc(C)cn2)c2[nH]cc(-c3ccnc(NC(=O)C4CC4)c3)c2c1 [Example 16, N-(3-(2-(cyclopropanecarboxamido)pyridin-4-yl)-5-methyl-1H-indol-7-yl)-5-methylpyrazine-2-carboxamide]

More lines, now with the values behind:

Structure (SMILES)	pIC50
CC(C)=C(C#N)C(=O)Nc1cccc2c1ccn2-c1ccnc(NC(=O)C2CC2)c1 [Example 40, N-(4-(4-(2-cyano-3-methylbut-2-enamido)-1H-indol-1-yl)pyridin-2-yl)cyclopropanecarboxamide]	6.00 to 7.00
O=C(Nc1cccc2c1ccn2-c1ccnc(NC(=O)C2CC2)c1)c1ccnc(F)c1F [Example 53, N-(1-(2-(cyclopropanecarboxamido)pyridin-4-yl)-1H-indol-4-yl)-2,3-difluoroisonicotinamide]	6.00 to 7.00
N#Cc1cc(C(=O)Nc2cccc3c2ccn3-c2ccnc(NC(=O)C3CC3)c2)ccn1 [Example 51, 2-cyano-N-(1-(2-(cyclopropanecarboxamido)pyridin-4-yl)-1H-indol-4-yl)isonicotinamide]	< 6.00
N#Cc1ccc(C(=O)Nc2cccc3c2ccn3-c2ccnc(NC(=O)C3CC3)c2)cc1 [Example 47, 4-cyano-N-(1-(2-(cyclopropanecarboxamido)pyridin-4-yl)-1H-indol-4-yl)benzamide]	< 6.00
CC(C)=C(C#N)C(=O)Nc1cc(C)cc2c(-c3ccnc(NC(=O)C4CC4)c3)c[nH]c12 [Example 15, N-(4-(7-(2-cyano-3-methylbut-2-enamido)-5-methyl-1H-indol-3-yl)pyridin-2-yl)cyclo propanecarboxamide]	6.00 to 7.00
O=C(Nc1cccc2c1ccn2-c1ccnc(NC(=O)C2CC2)c1)c1cc[nH]n1 [Example 55, N-(1-(2-(cyclopropanecarboxamido)pyridin-4-yl)-1H-indol-4-yl)-1H-pyrazole-3-carboxamide]	< 6.00
Cc1ccc(C(=O)Nc2cccc3c2ccn3-c2ccnc(NC(=O)C3CC3)c2)cn1 [Example 59, N-(1-(2-(cyclopropanecarboxamido)pyridin-4-yl)-1H-indol-4-yl)-6-methylnicotinamide]	< 6.00
N#CC1(C(=O)Nc2cccc3c2ccn3-c2ccnc(NC(=O)C3CC3)c2)CCOCC1 [Example 50, 4-cyano-N-(1-(2-(cyclopropanecarboxamido)pyridin-4-yl)-1H-indol-4-yl)tetrahydro-2H-pyran-4-carboxamide]	< 6.00
O=C(Nc1ccc(F)cc1F)Nc1cccc2c1ccn2-c1ccnc(NC(=O)C2CC2)c1 [Example 61, N-(4-(4-(3-(2,4-difluorophenyl)ureido)-1H-indol-1-yl)pyridin-2-yl)cyclopropanecarboxamide]	< 6.00
CC(C)=C(C#N)C(=O)Nc1cccc2c(-c3cc(C)nc(NC(=O)C4CC4)c3)c[nH]c12 [Example 9, N-(4-(7-(2-cyano-3-methylbut-2-enamido)-1H-indol-3-yl)-6-methylpyridin-2-yl)cyclopropanecarboxamide]	< 6.00
Cn1c(C(=O)Nc2cccc3c2ccn3-c2ccnc(NC(=O)C3CC3)c2)cc2ccccc21 [Example 49, N-(1-(2-(cyclopropanecarboxamido)pyridin-4-yl)-1H-indol-4-yl)-1-methyl-1H-indole-2-carboxamide]	< 6.00
CC(C)=C(C)C(=O)Nc1cccc2c1ccn2-c1ccnc(NC(=O)C2CC2)c1 [Example 60, N-(4-(4-(2,3-dimethylbut-2-enamido)-1H-indol-1-yl)pyridin-2-yl)cyclopropanecarboxamide]	< 6.00
Cc1ncc(C(=O)Nc2cccc3c2ccn3-c2ccnc(NC(=O)C3CC3)c2)s1 [Example 43, N-(1-(2-(cyclopropanecarboxamido)pyridin-4-yl)-1H-indol-4-yl)-2-methylthiazole-5-carboxamide]	< 6.00
